{"source": "patent US20030134880A1", "about": "“Novel cd23 inhibitors” (priority 2000, published 2003)", "data": [{"molecular_target": "T1, human recombinant collagenase (Homo sapiens, UniProt P03956)", "T1 construct": "made in house; host or cells: E. coli", "T1 sequence (P03956 100-469)": "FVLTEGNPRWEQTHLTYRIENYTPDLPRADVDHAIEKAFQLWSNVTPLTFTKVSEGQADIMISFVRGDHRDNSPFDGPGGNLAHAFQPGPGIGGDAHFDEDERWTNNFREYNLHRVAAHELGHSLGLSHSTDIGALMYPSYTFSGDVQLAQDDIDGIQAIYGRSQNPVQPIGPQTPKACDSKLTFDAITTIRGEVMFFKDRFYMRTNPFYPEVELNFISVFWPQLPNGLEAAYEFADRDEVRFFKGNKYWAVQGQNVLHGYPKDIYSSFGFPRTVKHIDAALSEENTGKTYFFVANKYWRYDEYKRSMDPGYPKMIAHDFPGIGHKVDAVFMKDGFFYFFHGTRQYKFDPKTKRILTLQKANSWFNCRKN", "assay": "Collagenase inhibition assay", "type": "biochemical", "settings": "acetylated 3H type 1 bovine collagen, 37° C., 18 h", "description": "Procedure 2: The ability of test compounds to inhibit collagenase was investigated using the following procedure.\nCollagenase Inhibition Assay:\nThe potency of compounds to act as inhibitors of collagenase was determined by the method of Cawston and Barrett (Anal. Biochem. 99, 340-345, 1979), hereby incorporated by reference, whereby a 1 mM solution of the inhibitor being tested or dilutions thereof, was incubated at 37° C. for 18 h with collagen and human recombinant collagenase, from synovial fibroblasts cloned, expressed and purified from E. Coli, (buffered with 150 mM Tris, pH 7.6. containing 15 mM calcium chloride, 0.05% Brij 35.200 mM sodium chloride and 0.02% sodium azide). The collagen was acetylated ^3H type 1 bovine collagen prepared by the method of Cawston and Murphy (methods in Enzymology 80. 711,1981) The samples were centrifuged to sediment undigested collagen and an aliquot of the radioactive supernatant removed for assay on a scintillation counter as a measure of hydrolysis. The collagenase activity in the presence of 1 mM inhibitor, or dilution thereof, was compared to activity in a control devoid of inhibitor and the results reported as that concentration effecting 50% of the collagenase (IC50).", "units": {"IC50": "µM"}, "values": [{"smiles": "O=C(NO)C(c1ccccc1)N(Cc1cccnc1)S(=O)(=O)Cc1ccc2sccc2c1", "note": "(racemic) [Example 2, (R,S)-2-[(Benzo[b]thiophen-5-ylmethanesulfonyl)(pyridin-3-ylmethyl)-amino]-N-hydroxy-2-phenylacetamide]", "IC50": "≤ 10"}, {"smiles": "COCCOCCN([C@@H](C(=O)NO)c1ccccc1)S(=O)(=O)Cc1ccc2sccc2c1", "note": "[Example 1, (R)-2-{(Benzo[b]thiophen-5-ylmethanesulfonyl)[2-(2-methoxyethoxy)-ethyl]amino}-N-hydroxy-2-phenylacetamide]", "IC50": "≤ 10"}, {"smiles": "CC(C)C[C@H](C(=O)NO)N(Cc1cccnc1)S(=O)(=O)Cc1ccc2sccc2c1", "note": "[Example 8]", "IC50": "≤ 10"}, {"smiles": "O=C(NO)[C@@H](C1CCCCC1)N(Cc1ccco1)S(=O)(=O)Cc1ccc2sccc2c1", "note": "[Example 14, (R)-2-[(Benzo[b]thiophen-5-ylmethanesulfonyl)(furan-2-ylmethyl)-amino]-2-cyclohexyl-N-hydroxy-acetamide]", "IC50": "≤ 10"}]}]}
